Active and inactive are the calls of the source.
What was measured:
[1] = target: Serine/threonine-protein phosphatase (Candida dubliniensis (strain CD36 / CBS 7987 / NCPF 3949 / NRRLY-17841) (Yeast), UniProt B9W6M3); assay: blockers of CaCl2-induced CDRE-lacZ signaling – S. cerevisiae, luminescence, secondary, dose response (AID 2388); type: functional, cell-based;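 also: yeast reporter cells carrying a calcineurin-responsive lacZ construct stimulated with calcium chloride; luminescent beta-galactosidase reporter signal in whole cells rather than isolated phosphatase activity; potency for inhibition where a drop in reporter signal means calcineurin blockade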
[2] = target: ATP-dependent molecular chaperone HSP82 (Candida albicans (strain WO-1) (Yeast), UniProt C4YTQ8); assay: steroid-induced GRE reporter decrease in yeast – S. cerevisiae, luminescence, Hsp90 inhibitor project, dose response (AID 2400); type: functional, cell-based;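 also: beta-galactosidase luminescence from glucocorticoid response element reporter as proxy for Hsp90 function; inhibitor potency where signal loss means Hsp90 inhibition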
[3] = NIH-3T3 fibroblast cytotoxicity, dose response, cytotoxicity control, cell-based, fluorescence, Alamar Blue, secondary assay (AID 2327); type: functional;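 also: NIH-3T3 mouse fibroblasts cultured with fluconazole at 8 µg/mL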
[4] = fluconazole-exposed Candida albicans growth modulators – fluorescence, retest, confirmation (AID 2467); type: functional, cell-based
Escherichia coli [5] = assay: microbe, parasite or virus in culture
Escherichia coli [6] = assay: microbe, parasite or virus in culture; remark: listed apart in the source
Streptococcus = assay: GAS UMAA2166 growth inhibition – luminescence, BacTiterGlo, counter-screen for streptokinase expression inhibitor project, dose response (AID 1915); type: functional, organism-based;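 also: potency for reduction of bacterial viability or growth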
[7] = Vero E6 cell cytotoxicity, dose response, cytotoxicity control for non-replicating M. tuberculosis project, secondary assay (AID 492998); type: functional, VeroE6; settings: Vero C1008
Vero [8] = assay: cells; type: functional; settings: Chlorocebus sabaeus
[9] = target: Heat shock protein HSP 90-alpha (Homo sapiens, UniProt P07900); type: functional, organism-based
[10] = THP-1 cell cytotoxicity, dose response, cytotoxicity control for non-replicating M. tuberculosis project (AID 489025); type: functional
Vero [11] = assay: cells; type: functional, cell-based; settings: Chlorocebus sabaeus
cells = type: functional
[12] = target: T1, Short transient receptor potential channel 4 (Mus musculus, UniProt Q9QUQ5); assay: calcium entry via TRPC4 opening agents – cell-based, HEK293 TRPC4/mu-opioid, Fluo-4 calcium, dose response (AID 434937); type: functional
T1 sequence (Q9QUQ5 whole entry): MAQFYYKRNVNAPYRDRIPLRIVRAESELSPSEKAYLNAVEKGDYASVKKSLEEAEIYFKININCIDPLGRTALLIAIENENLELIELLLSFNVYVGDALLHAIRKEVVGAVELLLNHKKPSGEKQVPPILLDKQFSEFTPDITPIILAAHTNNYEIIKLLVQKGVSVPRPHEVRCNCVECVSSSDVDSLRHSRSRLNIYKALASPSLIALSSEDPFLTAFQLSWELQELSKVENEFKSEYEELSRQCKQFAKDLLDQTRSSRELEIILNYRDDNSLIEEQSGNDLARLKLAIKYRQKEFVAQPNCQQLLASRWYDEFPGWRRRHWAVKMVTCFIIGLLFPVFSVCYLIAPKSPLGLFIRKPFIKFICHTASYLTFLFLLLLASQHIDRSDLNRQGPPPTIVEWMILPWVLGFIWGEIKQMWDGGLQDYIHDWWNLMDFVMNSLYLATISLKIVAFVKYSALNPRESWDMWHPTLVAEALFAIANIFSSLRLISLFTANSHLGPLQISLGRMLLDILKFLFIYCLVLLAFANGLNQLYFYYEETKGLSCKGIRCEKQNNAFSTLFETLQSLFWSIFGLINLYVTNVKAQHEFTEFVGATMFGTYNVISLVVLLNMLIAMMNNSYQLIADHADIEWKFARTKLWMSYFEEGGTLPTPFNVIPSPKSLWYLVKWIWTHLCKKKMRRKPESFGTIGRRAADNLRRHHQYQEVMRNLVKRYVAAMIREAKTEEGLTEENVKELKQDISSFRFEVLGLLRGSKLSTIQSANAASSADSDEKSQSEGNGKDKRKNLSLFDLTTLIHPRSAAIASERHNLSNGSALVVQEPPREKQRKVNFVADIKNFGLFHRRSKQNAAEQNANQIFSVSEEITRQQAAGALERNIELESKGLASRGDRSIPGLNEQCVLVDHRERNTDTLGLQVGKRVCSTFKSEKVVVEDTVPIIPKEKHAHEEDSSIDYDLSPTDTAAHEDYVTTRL

[13] = HepG2 cell cytotoxicity, dose response, cytotoxicity control for non-replicating M. tuberculosis project (AID 489018); type: functional; settings: Mycobacterium tuberculosis
[14] = tested on: Streptococcus sp. 'group A'; assay: Streptococcus pyogenes SK(-)GAS viability under kanamycin – luminescence, BacTiterGlo, confirmation, counter-screen for streptokinase expression inhibitor project, dose response (AID 1900); type: functional, organism-based
[15] = HGIII-sPLA2 enzyme inhibition potency – biochemical, QFRET, IC50, dose response (AID 743457);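 also: green fluorescence rise as the enzyme cleaves BODIPY PC-A2 in liposomes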
Bcl-2-related protein A1 = target: T2, Bcl-2-related protein A1 (Mus musculus, UniProt Q07440); type: functional;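 also: confirmatory dose–response counterscreen on Bfl-1, used to check hits from a UBC13 polyubiquitin inhibitor campaign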
T2 sequence (Q07440 whole entry): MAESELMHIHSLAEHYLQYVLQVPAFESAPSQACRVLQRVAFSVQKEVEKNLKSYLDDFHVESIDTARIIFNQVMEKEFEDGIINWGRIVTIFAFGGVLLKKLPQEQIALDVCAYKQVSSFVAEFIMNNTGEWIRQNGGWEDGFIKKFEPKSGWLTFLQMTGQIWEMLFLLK

[16] = target: T3, Ubiquitin-conjugating enzyme E2 N (Homo sapiens, UniProt P61088); type: functional
T3 sequence (P61088 whole entry): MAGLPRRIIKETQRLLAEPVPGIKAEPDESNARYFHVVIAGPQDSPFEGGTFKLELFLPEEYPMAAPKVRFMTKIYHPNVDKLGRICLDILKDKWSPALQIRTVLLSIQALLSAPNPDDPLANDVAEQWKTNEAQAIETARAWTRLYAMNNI

[17] = target: T3, Ubiquitin-conjugating enzyme E2 N; type: functional; remark: listed apart in the source
[18] = target: T4, Small ubiquitin-related modifier 1 (Homo sapiens, UniProt P63165); assay: SUMO1 protein-protein binding blockers, potency – biochemical, FRET, dose response (AID 624383); type: functional; settings: read-out: IC50_Mean
[19] = target: T4, Small ubiquitin-related modifier 1; assay: SUMO1 protein interaction blockers, potency – biochemical, fluorescence polarization, uHTS hits, dose response (AID 624382); type: functional; settings: read-out: IC50_Mean
[20] = target: T5, Rac GTPase-activating protein 1 (Homo sapiens, UniProt Q9H0H5); assay: blockers of MgcRacGAP-driven Rac1 GTP hydrolysis – biochemical, ADP Hunter fluorescence, primary and confirmatory, confirmation (AID 624330); type: functional
T5 sequence (Q9H0H5 whole entry): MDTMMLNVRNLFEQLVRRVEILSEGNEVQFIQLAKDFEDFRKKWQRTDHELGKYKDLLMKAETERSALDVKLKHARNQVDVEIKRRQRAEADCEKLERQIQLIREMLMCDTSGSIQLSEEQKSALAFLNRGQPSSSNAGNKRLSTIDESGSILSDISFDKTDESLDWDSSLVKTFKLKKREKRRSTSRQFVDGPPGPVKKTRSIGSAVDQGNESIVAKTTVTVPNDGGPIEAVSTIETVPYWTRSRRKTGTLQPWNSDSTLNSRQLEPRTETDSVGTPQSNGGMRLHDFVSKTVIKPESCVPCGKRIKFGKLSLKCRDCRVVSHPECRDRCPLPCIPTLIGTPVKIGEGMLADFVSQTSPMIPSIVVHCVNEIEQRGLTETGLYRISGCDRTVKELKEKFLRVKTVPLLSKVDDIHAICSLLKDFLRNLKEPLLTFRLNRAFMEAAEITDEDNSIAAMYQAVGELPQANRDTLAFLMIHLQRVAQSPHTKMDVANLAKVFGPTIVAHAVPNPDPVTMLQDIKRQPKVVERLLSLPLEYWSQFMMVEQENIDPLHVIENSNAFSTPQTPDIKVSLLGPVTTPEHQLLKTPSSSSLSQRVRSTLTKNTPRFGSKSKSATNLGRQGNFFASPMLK

Phospholipase A2 = Phospholipase A2 (Homo sapiens, UniProt P04054); type: functional;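 also: confirmatory dose-response counterscreen on phospholipase A2, testing hits that came from an ultra-high-throughput screen for ATG4B inhibitors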
[21] = target: T6, Calpain-2 catalytic subunit (Sus scrofa, UniProt P43367); assay: m-calpain protease blockers, concentration series – biochemical, fluorogenic peptide substrate, dose response (AID 1420); type: functional
T6 sequence (P43367 whole entry): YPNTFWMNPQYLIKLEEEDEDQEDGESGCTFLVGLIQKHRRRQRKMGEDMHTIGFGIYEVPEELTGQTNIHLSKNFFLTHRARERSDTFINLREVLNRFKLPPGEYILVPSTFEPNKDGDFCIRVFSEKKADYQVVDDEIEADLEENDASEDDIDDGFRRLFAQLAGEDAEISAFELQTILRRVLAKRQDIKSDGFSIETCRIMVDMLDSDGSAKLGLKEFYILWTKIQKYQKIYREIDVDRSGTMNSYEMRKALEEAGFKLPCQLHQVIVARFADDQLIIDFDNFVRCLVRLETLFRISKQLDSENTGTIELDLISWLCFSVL

Cysteine protease ATG4B = Cysteine protease ATG4B (Homo sapiens, UniProt Q9Y4P1); type: functional;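 also: Fluorescence-based dose-response confirmation assay measuring inhibition of ATG4B activity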
A-375 [22] = assay: MITF: Counter assay: A375 proliferation Measured in Cell-Based System Using Plate Reader - 2084-03_Inhibitor_Dose_DryPowder_Activity. [Related pubchem assays (depositor defined):AID488944]; type: functional; settings: Homo sapiens
A-375 [23] = assay: proliferation inhibition in MITF-low A375 cells – cell-based, cherry-pick samples, set 2, counter-screen for MITF modulator project, dose response (AID 540335); type: functional; settings: Homo sapiens
P388 = assay: cells; type: functional; settings: Mus musculus
[24] = target: T7, Microphthalmia-associated transcription factor (Homo sapiens, UniProt O75030); assay: reducers of TRPM1 reporter luminescence, concentration series – cell-based, SK-MEL-5, cherry-picked, set 3, MITF inhibitor project, dose response (AID 493073); type: functional;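 also: SK-MEL-5 melanoma cells with luciferase driven by the MITF target TRPM1 promoter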
T7 sequence (O75030 whole entry): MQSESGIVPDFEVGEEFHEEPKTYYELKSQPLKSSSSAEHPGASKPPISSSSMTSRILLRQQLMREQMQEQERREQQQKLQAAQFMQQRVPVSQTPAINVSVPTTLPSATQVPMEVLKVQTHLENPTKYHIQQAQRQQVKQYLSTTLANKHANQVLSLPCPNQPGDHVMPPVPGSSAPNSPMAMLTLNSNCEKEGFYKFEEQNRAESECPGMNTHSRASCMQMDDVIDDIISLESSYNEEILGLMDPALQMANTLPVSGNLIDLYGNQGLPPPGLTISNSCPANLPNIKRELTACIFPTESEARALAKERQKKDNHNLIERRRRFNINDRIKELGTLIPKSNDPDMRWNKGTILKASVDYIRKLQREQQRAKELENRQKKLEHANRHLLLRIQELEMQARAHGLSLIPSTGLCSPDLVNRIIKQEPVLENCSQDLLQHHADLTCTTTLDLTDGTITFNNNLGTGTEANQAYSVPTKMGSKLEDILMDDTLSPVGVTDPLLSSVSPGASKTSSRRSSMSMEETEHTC

P388/ADR = assay: cells; type: functional; settings: Mus musculus
SN12K1 = assay: cells; type: functional; settings: Homo sapiens

T4 sequence (P63165 whole entry): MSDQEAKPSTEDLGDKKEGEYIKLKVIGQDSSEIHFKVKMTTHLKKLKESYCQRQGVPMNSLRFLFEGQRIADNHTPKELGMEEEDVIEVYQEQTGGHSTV
Chain of ATP-dependent molecular chaperone HSP82 (C4YTQ8 whole entry): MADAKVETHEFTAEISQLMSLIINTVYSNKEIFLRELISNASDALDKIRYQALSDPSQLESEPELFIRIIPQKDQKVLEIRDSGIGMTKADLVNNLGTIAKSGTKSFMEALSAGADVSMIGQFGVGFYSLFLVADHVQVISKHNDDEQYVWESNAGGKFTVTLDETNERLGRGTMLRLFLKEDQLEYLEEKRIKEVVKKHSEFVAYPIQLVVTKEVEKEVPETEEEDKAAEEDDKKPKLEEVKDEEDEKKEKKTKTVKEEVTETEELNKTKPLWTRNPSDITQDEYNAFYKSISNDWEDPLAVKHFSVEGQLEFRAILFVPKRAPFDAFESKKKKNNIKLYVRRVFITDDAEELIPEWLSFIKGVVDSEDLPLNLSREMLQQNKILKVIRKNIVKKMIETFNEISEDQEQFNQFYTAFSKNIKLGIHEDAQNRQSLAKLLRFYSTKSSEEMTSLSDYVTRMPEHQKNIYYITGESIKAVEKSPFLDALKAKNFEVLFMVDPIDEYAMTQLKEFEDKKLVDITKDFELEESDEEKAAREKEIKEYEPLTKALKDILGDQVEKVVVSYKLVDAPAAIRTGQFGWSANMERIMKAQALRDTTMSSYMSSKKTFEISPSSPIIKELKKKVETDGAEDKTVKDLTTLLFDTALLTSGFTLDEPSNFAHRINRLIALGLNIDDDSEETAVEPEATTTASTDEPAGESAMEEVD
Chain of Cysteine protease ATG4B (Q9Y4P1 whole entry): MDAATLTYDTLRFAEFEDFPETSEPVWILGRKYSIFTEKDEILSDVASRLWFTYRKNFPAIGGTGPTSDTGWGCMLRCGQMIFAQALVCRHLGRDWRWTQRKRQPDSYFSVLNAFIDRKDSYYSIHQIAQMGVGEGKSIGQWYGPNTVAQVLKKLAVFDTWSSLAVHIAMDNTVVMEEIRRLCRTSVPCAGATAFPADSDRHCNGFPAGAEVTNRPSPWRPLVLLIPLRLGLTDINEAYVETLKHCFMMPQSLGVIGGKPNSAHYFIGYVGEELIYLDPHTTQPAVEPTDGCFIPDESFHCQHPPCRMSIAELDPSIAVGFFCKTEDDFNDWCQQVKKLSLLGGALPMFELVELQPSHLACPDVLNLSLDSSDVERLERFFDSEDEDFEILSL
Chain of Phospholipase A2 (P04054 whole entry): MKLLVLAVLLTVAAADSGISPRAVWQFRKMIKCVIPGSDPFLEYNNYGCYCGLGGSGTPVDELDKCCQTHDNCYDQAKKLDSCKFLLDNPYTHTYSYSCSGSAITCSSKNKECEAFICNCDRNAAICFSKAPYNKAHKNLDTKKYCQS
Chain of Serine/threonine-protein phosphatase (B9W6M3 whole entry): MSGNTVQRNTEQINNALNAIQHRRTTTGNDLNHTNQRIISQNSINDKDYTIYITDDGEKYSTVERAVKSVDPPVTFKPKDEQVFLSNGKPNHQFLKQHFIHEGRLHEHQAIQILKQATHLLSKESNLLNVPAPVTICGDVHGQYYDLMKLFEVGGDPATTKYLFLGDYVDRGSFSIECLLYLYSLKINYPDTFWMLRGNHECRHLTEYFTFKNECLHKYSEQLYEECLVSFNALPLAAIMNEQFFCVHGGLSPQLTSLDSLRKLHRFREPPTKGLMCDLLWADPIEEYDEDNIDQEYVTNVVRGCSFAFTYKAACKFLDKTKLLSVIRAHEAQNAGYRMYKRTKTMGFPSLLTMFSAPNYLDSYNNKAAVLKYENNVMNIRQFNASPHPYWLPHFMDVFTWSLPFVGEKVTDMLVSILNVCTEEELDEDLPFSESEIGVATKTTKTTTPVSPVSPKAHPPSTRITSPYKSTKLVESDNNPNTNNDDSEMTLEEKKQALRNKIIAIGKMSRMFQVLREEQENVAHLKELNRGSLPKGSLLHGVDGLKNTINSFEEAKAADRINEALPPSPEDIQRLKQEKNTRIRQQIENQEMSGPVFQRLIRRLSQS

**Q.** For `COc1ccc(C(=O)NNC(=S)NC(=O)c2ccc(Cl)cc2)cc1`, which EC50 [1] is on record?
**A.** > 180 µM (inactive)

**Q.** And the EC50 [2]?
**A.** 13.9 µM (active)

**Q.** And the EC50 [3]?
**A.** > 160 µM (inactive)

**Q.** And the EC50 [4]?
**A.** 0.275 µM (active)

**Q.** Which results are given for `COc1cc(-c2noc(-c3ccccc3C(=O)NCc3ccco3)n2)cc(OC)c1OC`?
**A.** AC50 (Escherichia coli [5]): 40.5 µM (active); AC50 (Escherichia coli [6]): 71.1 µM (active)

**Q.** With `CC(Oc1ccc(Cl)cc1)C(=O)NNC(=S)NC(=O)c1ccco1` (stereo unspecified) as the compound, how does the EC50 (Streptococcus) read?
**A.** 2.29 µM (active)

**Q.** What about the CC50 [7] of the same compound?
**A.** 11.2 µM (active)

**Q.** What about the CC50 (Vero [8]) of the same compound?
**A.** > 25 µM (active)

**Q.** And the AC50 [9]?
**A.** 1.41 µM (active)

**Q.** And the CC50 [10]?
**A.** 13.7 µM (active)

**Q.** And the IC50 (Vero [11])?
**A.** > 25 µM (active)

**Q.** What about the IC50 (cells) of the same compound?
**A.** 9.22 µM (active)

**Q.** What about the EC50 [12] of the same compound?
**A.** 5.31 µM (active)

**Q.** What about the CC50 [13] of the same compound?
**A.** > 20 µM (active)

**Q.** And the EC50 [14]?
**A.** 0.571 µM (active)

**Q.** What about the IC50 [15] of the same compound?
**A.** 34.9 µM (inactive)

**Q.** What does the source list for `O=C(Nc1ccc(C2=NCCN2)cc1)c1ccc(C(=O)Nc2ccc(C3=NCCN3)cc2)c([N+](=O)[O-])c1`?
**A.** IC50 (Bcl-2-related protein A1): 4.88 µM (active); IC50 [16]: 2.17 µM (active); IC50 [17]: 3.11 µM (active); IC50 [18]: 3.28 µM (active); AC50 (Escherichia coli [6]): 243 µM (active); IC50 [19]: > 66.6 µM (inactive); IC50 [20]: 33.1 µM (active)

**Q.** With `COc1cnc(SCc2c(Cl)cccc2Cl)nc1Cl` as the compound, how does the IC50 (Phospholipase A2) read?
**A.** 7.65 µM (active)

**Q.** And the IC50 [21]?
**A.** < 0.4 µM (not active)

**Q.** What about the IC50 (Cysteine protease ATG4B) of the same compound?
**A.** 7.76 µM (active)

**Q.** With `COc1ccc(/C=C/c2cc(C(F)(F)F)on2)cc1` as the compound, how does the AC50 (A-375 [22]) read?
**A.** > 35 µM (active)

**Q.** What about the AC50 (A-375 [23]) of the same compound?
**A.** > 35 µM (active)

**Q.** Which results are given for `CN(C)CC1CC/C(=C\c2ccc(O)cc2)C1=O` (stereo unspecified)?
**A.** GI50 (P388): 0.491 µM (active); AC50 [24]: 12.9 µM (active); AC50 (A-375 [22]): > 35 µM (active); GI50 (P388/ADR): 1.69 µM (inactive); AC50 [9]: 4.38 µM (active); GI50 (SN12K1): 1.78 µM (inactive); AC50 (A-375 [23]): > 35 µM (active)

Reference: ChEMBL document CHEMBL1201862, “PubChem BioAssay data set” (2004)
